According to US20140243286A1, “BROMODOMAIN LIGANDS CAPABLE OF DIMERIZING IN AN AQUEOUS SOLUTION, AND METHODS OF USING SAME” (Coferon, Inc., priority 2011, published 2014):
Where two headings read alike, the source gives them in different places.

Experiments:
BRD3 = BRD3 (Homo sapiens, UniProt Q15059); assay: Fluorescence anisotropy (FA) binding assay, BRD3
Procedure: (§1) Fluorescence Anisotropy (FA) Binding Assays.
(§2) FA assays were performed as described in Chung et al., J. Med Chem., 2011 54(11): 3827-38 except that protein concentrations were 125 nM and plates were read on a Spectramax M5 plate reader.

BRD4 = BRD4 (Homo sapiens, UniProt O60885); assay: Fluorescence anisotropy (FA) binding assay, BRD4
Procedure: as §1, §2

BRD2 = BRD2 (Homo sapiens, UniProt P25440); assay: Fluorescence anisotropy (FA) binding assay, BRD2
Chain of BRD2 (P25440 whole entry): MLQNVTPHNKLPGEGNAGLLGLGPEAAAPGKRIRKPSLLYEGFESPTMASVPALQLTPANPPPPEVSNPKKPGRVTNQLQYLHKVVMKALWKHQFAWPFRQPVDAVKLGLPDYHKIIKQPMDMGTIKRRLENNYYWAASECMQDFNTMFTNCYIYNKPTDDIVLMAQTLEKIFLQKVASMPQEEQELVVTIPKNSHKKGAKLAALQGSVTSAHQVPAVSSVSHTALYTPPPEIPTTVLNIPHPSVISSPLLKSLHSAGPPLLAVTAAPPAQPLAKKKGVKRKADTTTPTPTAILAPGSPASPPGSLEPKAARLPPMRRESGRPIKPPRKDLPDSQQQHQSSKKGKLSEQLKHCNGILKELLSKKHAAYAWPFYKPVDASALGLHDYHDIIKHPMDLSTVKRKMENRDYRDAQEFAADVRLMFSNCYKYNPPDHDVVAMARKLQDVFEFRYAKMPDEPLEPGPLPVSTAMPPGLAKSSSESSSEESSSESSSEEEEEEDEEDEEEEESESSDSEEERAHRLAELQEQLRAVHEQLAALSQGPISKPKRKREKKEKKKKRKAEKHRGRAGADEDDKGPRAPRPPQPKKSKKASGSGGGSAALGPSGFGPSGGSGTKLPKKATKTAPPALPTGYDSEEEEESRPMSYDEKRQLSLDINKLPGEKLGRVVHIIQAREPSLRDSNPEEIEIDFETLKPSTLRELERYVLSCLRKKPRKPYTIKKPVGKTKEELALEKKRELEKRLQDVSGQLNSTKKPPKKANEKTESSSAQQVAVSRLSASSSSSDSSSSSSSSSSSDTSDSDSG
Procedure: as §1, §2

[1] = BRD3, protein 125 nM, read-out: IC50 range (FA assay) BRD3, BRD-E monomers
[2] = BRD4, protein 125 nM, read-out: IC50 range (FA assay) BRD4, BRD-E monomers
[3] = BRD2, protein 125 nM, read-out: IC50 range (FA assay) BRD2, BRD-E monomers
[4] = BRD3, protein 125 nM, read-out: IC50 range (FA assay) BRD3, BRD-N monomers
[5] = BRD4, protein 125 nM, read-out: IC50 range (FA assay) BRD4, BRD-N monomers
[6] = BRD2, protein 125 nM, read-out: IC50 range (FA assay) BRD2, BRD-N monomers

Chain of BRD3 (Q15059 whole entry): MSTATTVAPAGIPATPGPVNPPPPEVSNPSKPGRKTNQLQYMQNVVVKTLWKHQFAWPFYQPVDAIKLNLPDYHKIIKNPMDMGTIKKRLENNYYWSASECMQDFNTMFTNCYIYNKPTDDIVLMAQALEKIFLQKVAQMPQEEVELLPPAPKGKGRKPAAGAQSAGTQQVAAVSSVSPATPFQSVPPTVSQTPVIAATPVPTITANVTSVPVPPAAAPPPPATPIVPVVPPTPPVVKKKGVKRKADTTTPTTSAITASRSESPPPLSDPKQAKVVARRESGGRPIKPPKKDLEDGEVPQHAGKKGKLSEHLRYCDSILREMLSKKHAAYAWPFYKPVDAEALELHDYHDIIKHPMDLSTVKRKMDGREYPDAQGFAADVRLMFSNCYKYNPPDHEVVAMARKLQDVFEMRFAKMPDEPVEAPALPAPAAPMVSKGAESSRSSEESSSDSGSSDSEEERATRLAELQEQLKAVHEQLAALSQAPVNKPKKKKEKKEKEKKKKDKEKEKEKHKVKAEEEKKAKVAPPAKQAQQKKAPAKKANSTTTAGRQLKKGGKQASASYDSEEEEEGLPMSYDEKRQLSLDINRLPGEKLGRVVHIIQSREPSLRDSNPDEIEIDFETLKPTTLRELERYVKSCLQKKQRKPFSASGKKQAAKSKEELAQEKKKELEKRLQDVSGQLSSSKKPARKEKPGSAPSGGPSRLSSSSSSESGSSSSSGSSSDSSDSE

With `CCNC(=O)C[C@@H]1N=C(c2ccc(Cl)cc2)c2cc(OCCNC(=O)c3ccc(B(O)O)cc3)ccc2-n2c(C)nnc21` [BRD-E-22, (S)-(4-((2-((6-(4-chlorophenyl)-4-(2-(ethylamino)-2-oxoethyl)-1-methyl-4H-benzo[f][1,2,4]triazolo[4,3-a]diazepin-8-yl)oxy)ethyl)carbamoyl)phenyl)boronic acid] the IC50 (BRD3; [1]) was 50 to 1000 nM, the IC50 (BRD4; [2]) was 50 to 1000 nM and the IC50 (BRD2; [3]) was 50 to 1000 nM.

Work on `COc1ccc2c(c1)C(c1ccc(Cl)cc1)=N[C@@H](CC(=O)NCCCCCNC(=O)c1ccc(O)c(O)c1)c1nnc(C)n1-2` [BRD-N-07, N-(5-(2-((4S)-6-(4-chlorophenyl)-8-methoxy-1-methyl-4H-benzo[f][1,2,4]triazolo[4,3-a][1,4]diazepin-4-yl)acetamido)pentyl)-3,4-dihydroxybenzamide] yielded an IC50 (BRD3; [4]) of 50 to 1000 nM, an IC50 (BRD4; [5]) of 50 to 1000 nM and an IC50 (BRD2; [6]) of 50 to 1000 nM.

Molecule `COc1ccc2c(c1)C(c1ccc(Cl)cc1)=N[C@@H](CC(=O)NCCNC(=O)Cc1cccc(B(O)O)c1)c1nnc(C)n1-2` [BRD-E-38, (3-(2-((2-(2-((4S)-6-(4-chlorophenyl)-8-methoxy-1-methyl-4H-benzo[f][1,2,4]triazolo[4,3-a][1,4]diazepin-4-yl)acetamido)ethyl)amino)-2-oxoethyl)phenyl)boronic acid] has an IC50 (BRD3; [1]) of 50 to 1000 nM, an IC50 (BRD4; [2]) of 50 to 1000 nM and an IC50 (BRD2; [3]) of 50 to 1000 nM.

Molecule `CCNC(=O)C[C@@H]1N=C(c2ccc(Cl)cc2)c2cc(OCCCCC(=O)Nc3cccc(B(O)O)c3)ccc2-n2c(C)nnc21` [BRD-E-20, (S)-(3-(5-((6-(4-chlorophenyl)-4-(2-(ethylamino)-2-oxoethyl)-1-methyl-4H-benzo[f][1,2,4]triazolo[4,3-a][1,4]diazepin-8-yl)oxy)pentanamido)phenyl)boronic acid] has an IC50 (BRD3; [1]) of 50 to 1000 nM, an IC50 (BRD4; [2]) of 50 to 1000 nM and an IC50 (BRD2; [3]) of 50 to 1000 nM.

Molecule `COc1ccc2c(c1)C(c1ccc(Cl)cc1)=N[C@@H](CC(=O)NCCCCNC(=O)c1cccc(B(O)O)c1)c1nnc(C)n1-2` [BRD-E-06, (3-((4-(2-((4S)-6-(4-chlorophenyl)-8-methoxy-1-methyl-4H-benzo[f][1,2,4]triazolo[4,3-a][1,4]diazepin-4-yl)acetamido)butyl)carbamoyl)phenyl)boronic acid] has an IC50 (BRD3; [1]) of 50 to 1000 nM, an IC50 (BRD4; [2]) of 50 to 1000 nM and an IC50 (BRD2; [3]) of 50 to 1000 nM.

`CCNC(=O)C[C@@H]1N=C(c2ccc(Cl)cc2)c2cc(OCCCNC(=O)c3cccc(B(O)O)c3)ccc2-n2c(C)nnc21` [BRD-E-23, (S)-(3-((3-((6-(4-chlorophenyl)-4-(2-(ethylamino)-2-oxoethyl)-1-methyl-4H-benzo[f][1,2,4]triazolo[4,3-a][1,4]diazepin-8-yl)oxy)propyl)carbamoyl)phenyl)boronic acid] showed an IC50 (BRD3; [1]) of 1000 to 30000 nM, an IC50 (BRD4; [2]) of 1000 to 30000 nM and an IC50 (BRD2; [3]) of 1000 to 30000 nM.

`CCNC(=O)C[C@@H]1N=C(c2ccc(Cl)cc2)c2cc(OCCCNC(=O)c3ccc(B(O)O)cc3)ccc2-n2c(C)nnc21` [BRD-E-24, (S)-(4-((3-((6-(4-chlorophenyl)-4-(2-(ethylamino)-2-oxoethyl)-1-methyl-4H-benzo[f][1,2,4]triazolo[4,3-a][1,4]diazepin-8-yl)oxy)propyl)carbamoyl)phenyl)-boronic acid] gave an IC50 (BRD3; [1]) of 50 to 1000 nM, an IC50 (BRD4; [2]) of 50 to 1000 nM and an IC50 (BRD2; [3]) of 1000 to 30000 nM.

`CCNC(=O)C[C@@H]1N=C(c2ccc(Cl)cc2)c2cc(OCC(=O)Nc3ccc(B(O)O)cc3)ccc2-n2c(C)nnc21` [BRD-E-16, (S)-(4-(2-((6-(4-chlorophenyl)-4-(2-(ethylamino)-2-oxoethyl)-1-methyl-4H-benzo[f][1,2,4]triazolo[4,3-a][1,4]diazepin-8-yl)oxy)acetamido)phenyl)boronic acid] showed an IC50 (BRD3; [1]) of 50 to 1000 nM, an IC50 (BRD4; [2]) of 50 to 1000 nM and an IC50 (BRD2; [3]) of 1000 to 30000 nM.

`COc1ccc2c(c1)C(c1ccc(Cl)cc1)=N[C@@H](CC(=O)NCc1cccc(B(O)O)c1)c1nnc(C)n1-2` [BRD-E-10, (S)-(3-((2-(6-(4-chlorophenyl)-8-methoxy-1-methyl-4H-benzo[f][1,2,4]triazolo[4,3-a][1,4]diazepin-4-yl)acetamido)methyl)phenyl)boronic acid] was tested, and the IC50 (BRD3) was 50 to 1000 nM, the IC50 (BRD4) was 50 to 1000 nM and the IC50 (BRD2) was 50 to 1000 nM.

For `COc1ccc2c(c1)C(c1ccc(Cl)cc1)=N[C@@H](CC(=O)NCCCNC(=O)c1cccc(B(O)O)c1)c1nnc(C)n1-2` [BRD-E-04, (3-((3-(2-((4S)-6-(4-chlorophenyl)-8-methoxy-1-methyl-4H-benzo[f][1,2,4]triazolo[4,3-a][1,4]diazepin-4-yl)acetamido)propyl)carbamoyl)phenyl)-boronic acid], the IC50 (BRD3; [1]) was 50 to 1000 nM, the IC50 (BRD4; [2]) was 50 to 1000 nM and the IC50 (BRD2; [3]) was 50 to 1000 nM.

For `COc1ccc2c(c1)C(c1ccc(Cl)cc1)=N[C@@H](CC(=O)NCCc1ccc(O)c(O)c1)c1nnc(C)n1-2` [BRD-N-10, (S)-2-(6-(4-chlorophenyl)-8-methoxy-1-methyl-4H-benzo[f][1,2,4]triazolo[4,3-a][1,4]diazepin-4-yl)-N-(3,4-dihydroxyphenethyl)acetamide], the IC50 (BRD3; [4]) was 50 to 1000 nM, the IC50 (BRD4; [5]) was 50 to 1000 nM and the IC50 (BRD2; [6]) was 50 to 1000 nM.

`CCNC(=O)C[C@@H]1N=C(c2ccc(Cl)cc2)c2cc(OCCCC(=O)Nc3cccc(B(O)O)c3)ccc2-n2c(C)nnc21` [BRD-E-19] gave an IC50 (BRD3; [1]) of 50 to 1000 nM, an IC50 (BRD4; [2]) of 50 to 1000 nM and an IC50 (BRD2; [3]) of 50 to 1000 nM.

Molecule `COc1ccc2c(c1)C(c1ccc(Cl)cc1)=N[C@@H](CC(=O)NCCCNC(=O)c1cccc(O)c1O)c1nnc(C)n1-2` [BRD-N-04, N-(3-(2-((4S)-6-(4-chlorophenyl)-8-methoxy-1-methyl-4H-benzo[f][1,2,4]triazolo[4,3-a][1,4]diazepin-4-yl)acetamido)propyl)-2,3-dihydroxybenzamide] has an IC50 (BRD3) of 50 to 1000 nM, an IC50 (BRD4) of 50 to 1000 nM and an IC50 (BRD2) of 50 to 1000 nM.

Work on `CCNC(=O)C[C@@H]1N=C(c2ccc(Cl)cc2)c2cc(OCCNC(=O)c3ccc(O)c(O)c3)ccc2-n2c(C)nnc21` [BRD-N-24] yielded an IC50 (BRD3; [4]) of 50 to 1000 nM, an IC50 (BRD4; [5]) of 1000 to 30000 nM and an IC50 (BRD2; [6]) of 50 to 1000 nM.

Work on `COc1ccc2c(c1)C(c1ccc(Cl)cc1)=N[C@@H](CC(=O)NCCNC(=O)c1cccc(O)c1O)c1nnc(C)n1-2` [BRD-N-02, N-(2-(2-((4S)-6-(4-chlorophenyl)-8-methoxy-1-methyl-4H-benzo[f][1,2,4]triazolo[4,3-a][1,4]diazepin-4-yl)acetamido)ethyl)-2,3-dihydroxybenzamide] yielded an IC50 (BRD3; [4]) of 50 to 1000 nM, an IC50 (BRD4; [5]) of 50 to 1000 nM and an IC50 (BRD2; [6]) of 50 to 1000 nM.

Work on `COc1ccc2c(c1)C(c1ccc(Cl)cc1)=N[C@@H](CC(=O)NCCNC(=O)Cc1ccc(O)c(O)c1)c1nnc(C)n1-2` [BRD-N-30, 2-((4S)-6-(4-chlorophenyl)-8-methoxy-1-methyl-4H-benzo[f][1,2,4]triazolo[4,3-a][1,4]diazepin-4-yl)-N-(2-(2-(3,4-dihydroxyphenyl)acetamido)ethyl)acetamide] yielded an IC50 (BRD3; [4]) of 50 to 1000 nM, an IC50 (BRD4; [5]) of 50 to 1000 nM and an IC50 (BRD2; [6]) of 50 to 1000 nM.

For `CCNC(=O)C[C@@H]1N=C(c2ccc(Cl)cc2)c2cc(OCCCCNC(=O)c3ccc(B(O)O)cc3)ccc2-n2c(C)nnc21` [BRD-E-26, (S)-(4-((4-((6-(4-chlorophenyl)-4-(2-(ethylamino)-2-oxoethyl)-1-methyl-4H-benzo[f][1,2,4]triazolo[4,3-a][1,4]diazepin-8-yl)oxy)butyl)carbamoyl)phenyl)boronic acid], the IC50 (BRD3; [1]) was 50 to 1000 nM, the IC50 (BRD4; [2]) was 50 to 1000 nM and the IC50 (BRD2; [3]) was 50 to 1000 nM.

`CCNC(=O)C[C@@H]1N=C(c2ccc(Cl)cc2)c2cc(OCCCCC(=O)Nc3ccc(O)c(O)c3)ccc2-n2c(C)nnc21` [BRD-N-22, (S)-5-((6-(4-chlorophenyl)-4-(2-(ethylamino)-2-oxoethyl)-1-methyl-4H-benzo[f][1,2,4]triazolo[4,3-a][1,4]diazepin-8-yl)oxy)-N-(3,4-dihydroxyphenyl)pentanamide] gave an IC50 (BRD3; [4]) of 50 to 1000 nM, an IC50 (BRD4; [5]) of 50 to 1000 nM and an IC50 (BRD2; [6]) of 50 to 1000 nM.

`CCNC(=O)C[C@@H]1N=C(c2ccc(Cl)cc2)c2cc(OCC(=O)Nc3cccc(O)c3O)ccc2-n2c(C)nnc21` [BRD-N-17, (S)-2-((6-(4-chlorophenyl)-4-(2-(ethylamino)-2-oxoethyl)-1-methyl-4H-benzo[f][1,2,4]triazolo[4,3-a][1,4]diazepin-8-yl)oxy)-N-(2,3-dihydroxyphenyl)acetamide] gave an IC50 (BRD3; [4]) of 1000 to 30000 nM, an IC50 (BRD4; [5]) of 50 to 1000 nM and an IC50 (BRD2; [6]) of 50 to 1000 nM.

In the case of `CCNC(=O)C[C@@H]1N=C(c2ccc(Cl)cc2)c2cc(OCCCCNC(=O)c3cccc(O)c3O)ccc2-n2c(C)nnc21` [BRD-N-29, (S)—N-(4-((6-(4-chlorophenyl)-4-(2-(ethylamino)-2-oxoethyl)-1-methyl-4H-benzo[f][1,2,4]triazolo[4,3-a][1,4]diazepin-8-yl)oxy)butyl)-2,3-dihydroxybenzamide], the IC50 (BRD3; [4]) is reported as 1000 to 30000 nM, the IC50 (BRD4; [5]) is reported as 1000 to 30000 nM and the IC50 (BRD2; [6]) is reported as 50 to 1000 nM.

With `COc1ccc2c(c1)C(c1ccc(Cl)cc1)=N[C@@H](CC(=O)NCCNC(=O)Cc1ccc(B(O)O)cc1)c1nnc(C)n1-2` [BRD-E-27, (4-(2-((2-(2-((4S)-6-(4-chlorophenyl)-8-methoxy-1-methyl-4H-benzo[f][1,2,4]triazolo[4,3-a][1,4]diazepin-4-yl)acetamido)ethyl)amino)-2-oxoethyl)phenyl)boronic acid] the IC50 (BRD4; [2]) was 1000 to 30000 nM and the IC50 (BRD2; [3]) was 1000 to 30000 nM.

`COc1ccc2c(c1)C(c1ccc(Cl)cc1)=N[C@@H](CC(=O)NCCc1cccc(B(O)O)c1)c1nnc(C)n1-2` [BRD-E-14, (S)-(3-(2-(2-(6-(4-chlorophenyl)-8-methoxy-1-methyl-4H-benzo[f][1,2,4]triazolo[4,3-a][1,4]diazepin-4-yl)acetamido)ethyl)phenyl)boronic acid] gave an IC50 (BRD3; [1]) of 50 to 1000 nM, an IC50 (BRD4; [2]) of 50 to 1000 nM and an IC50 (BRD2; [3]) of 50 to 1000 nM.
